Source: US20240252488A1 (KOREA RESEARCH INSTITUTE OF CHEMICAL TECHNOLOGY, priority 2020, published 2024)

Tests used:
MLKL [1] = target: T1, MLKL (Homo sapiens, UniProt Q8NB16); test: MLKL degradation assay in HepG2 cell line (western blot); assay type: cell-based; set-up: endogenous in cells; host or cells: HepG2 or HaCaT; conditions: cell line not given; for Degradation assay (Degradation %) 1 μM: compound 1 μM; for Degradation assay (Degradation %) 10 μM: compound 10 μM
T1 sequence (Q8NB16 1-471): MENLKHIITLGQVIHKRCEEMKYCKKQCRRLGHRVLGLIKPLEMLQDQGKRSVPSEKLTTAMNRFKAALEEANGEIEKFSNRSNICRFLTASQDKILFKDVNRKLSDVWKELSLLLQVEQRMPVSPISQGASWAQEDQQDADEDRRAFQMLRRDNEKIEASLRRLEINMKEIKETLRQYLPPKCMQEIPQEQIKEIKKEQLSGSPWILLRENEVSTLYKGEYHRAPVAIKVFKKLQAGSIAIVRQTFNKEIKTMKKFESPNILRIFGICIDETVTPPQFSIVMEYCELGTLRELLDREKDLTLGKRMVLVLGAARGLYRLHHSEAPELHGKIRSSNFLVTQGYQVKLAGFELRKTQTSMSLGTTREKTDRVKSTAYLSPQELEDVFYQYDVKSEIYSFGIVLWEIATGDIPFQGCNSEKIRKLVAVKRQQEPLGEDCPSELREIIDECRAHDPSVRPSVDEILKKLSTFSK
Method in brief: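 After treating HepG2 with test compounds (final 1 μM or 10 μM) for 20-24 h, we lysed cells, equalized protein by BCA and probed MLKL by overnight primary antibody at 4 °C followed by chemiluminescent detection.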

FADD−/− Jurkat cells = test: Necroptosis inhibition assay, TNF-α-induced necroptosis (CellTiter-Glo 2.0); assay type: cell-based, human; conditions: TNF-α 15 ng/mL; for Necroptosis inhibition assay (Rescue %) 1 μM: compound 1 μM; for Necroptosis inhibition assay (Rescue %) 10 μM: compound 10 μM
Method in brief: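 Necroptosis was triggered by TNF-α at 15 ng/mL final following 30 minutes of compound exposure (0.1, 1 or 10 μM final). Incubation ran 20 to 24 hours at 37° C under 5% CO2; cell ATP was then quantified by luminescence.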

MLKL [2] = target: T1, MLKL; test: Measurement of binding affinity with MLKL receptor (competitive binding assay, Kd); set-up: made in house; host or cells: HEK 293 cell line (T7 phage in E. coli BL21-derived host is also described)
Method in brief: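 Competitive displacement of MLKL, expressed in HEK 293 cells and DNA-tagged for qPCR, from immobilized ligand on biotin-blocked beads. Compounds were added from 111× DMSO stocks (final DMSO 0.9%). Kinase left in the eluates was quantified by qPCR to give Kd.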

Row | SMILES | Degradation assay (Degradation %) 1 μM (MLKL [1]) [%] | Degradation assay (Degradation %) 10 μM (MLKL [1]) [%] | Necroptosis inhibition assay (Rescue %) 1 μM (FADD−/− Jurkat cells; FADD−/− Jurkat cells) [%] | Necroptosis inhibition assay (Rescue %) 10 μM (FADD−/− Jurkat cells; FADD−/− Jurkat cells) [%] | Kd (MLKL [2]) [nM] | Necroptosis inhibition assay (Rescue %) 1 μM (FADD−/− Jurkat cells) [%] | Necroptosis inhibition assay (Rescue %) 10 μM (FADD−/− Jurkat cells) [%]
1 | Nc1ncc(-c2cnn(C3CCN(C(=O)CCC4CCN(C(=O)C5CN(c6ccc7nnn(C8CCC(=O)NC8=O)c(=O)c7c6)C5)CC4)CC3)c2)nc1C(=O)O[C@@H](C(=O)Nc1ccc(F)cc1)c1ccccc1 (stereo partly drawn) [TDH-438, (R)-2-((4-fluorophenyl)amino)-2-oxo-1-phenylethyl 3-amino-6-(1-(1-(3-(1-(1-(3-(2,6-dioxopiperidin-3-yl)-4-oxo-3,4-dihydrobenzo[d][1,2,3]triazin-6-yl)azetidine-3-carbonyl)piperidin-4-yl)propanoyl)piperidin-4-yl)-1H-pyrazol-4-yl)pyrazine-2-carboxylate] | 86.72 | 78.91 | 26.37 | 13.48 | 4.5 |  | 
2 | Nc1ncc(-c2cnn(C3CCN(CCC4CCN(CC5CCN(C(=O)Cc6cccc(NC7=CC(=O)N(C8CCC(=O)NC8=O)C7=O)c6)CC5)CC4)CC3)c2)nc1C(=O)O[C@@H](C(=O)Nc1ccc(F)cc1)c1ccccc1 (stereo partly drawn) [TDH-510, (R)-2-((4-fluorophenyl)amino)-2-oxo-1-phenylethyl 3-amino-6-(1-(1-(2-(1-((1-(2-(3-((1-(2,6-dioxopiperidin-3-yl)-2,5-dioxo-2,5-dihydro-1H-pyrrol-3-yl)amino)phenyl)acetyl)piperidin-4-yl)methyl)piperidin-4-yl)ethyl)piperidin-4-yl)-1H-pyrazol-4-yl)pyrazine-2-carboxylate] | 79.77 | 84.86 | 28.63 | −91.81 | 0.47 |  | 
3 | Nc1ncc(-c2cnn(C3CCN(C(=O)C4CCN(C(=O)COc5ccc6c(c5)C(=O)N(C5CCC(=O)NC5=O)C6=O)CC4)CC3)c2)nc1C(=O)OC(C(=O)Nc1ccc(F)cc1)c1ccccc1 (stereo not drawn) [TDH-278, 2-((4-fluorophenyl)amino)-2-oxo-1-phenylethyl 3-amino-6-(1-(1-(1-(2-((2-(2,6-dioxopiperidin-3-yl)-1,3-dioxoisoindolin-5-yl)oxy)acetyl)piperidine-4-carbonyl)piperidin-4-yl)-1H-pyrazol-4-yl)pyrazine-2-carboxylate] | 64.63 | 75.28 |  |  | 1.4 | 63.64 | 39.23
4 | Nc1ncc(-c2cnn(C3CCN(C(=O)C4CCN(C(=O)C5CCN(c6cccc7c6C(=O)N(C6CCC(=O)NC6=O)C7=O)CC5)CC4)CC3)c2)nc1C(=O)OC(C(=O)Nc1ccc(F)cc1)c1ccccc1 (stereo not drawn) [TDH-273, 2-((4-fluorophenyl)amino)-2-oxo-1-phenylethyl 3-amino-6-(1-(1-(1-(1-(2-(2,6-dioxopiperidin-3-yl)-1,3-dioxoisoindolin-4-yl)piperidine-4-carbonyl)piperidine-4-carbonyl)piperidin-4-yl)-1H-pyrazol-4-yl)pyrazine-2-carboxylate] | 77.5 | 61.88 |  |  | 3.5 | 54.02 | 34.08
5 | Nc1ncc(-c2ccc(N3CCN(CC4CCN(C(=O)CNc5ccc6c(c5)C(=O)N(C5CCC(=O)NC5=O)C6=O)CC4)CC3)nc2)nc1C(=O)OC(C(=O)Nc1ccc(F)cc1)c1ccccc1 (stereo not drawn) [TDH-233, 2-((4-fluorophenyl)amino)-2-oxo-1-phenylethyl 3-amino-6-(6-(4-((1-((2-(2,6-dioxopiperidin-3-yl)-1,3-dioxoisoindolin-5-yl)glycyl)piperidin-4-yl)methyl)piperazin-1-yl)pyridin-3-yl)pyrazine-2-carboxylate] | 15.59 | 16.2 |  |  | 160 | 23.37 | 4.71
6 | Nc1ncc(-c2cnn(C3CCN(CCC4CCN(C(=O)c5ccc6c(c5)CN(C5CCC(=O)NC5=O)C6=O)CC4)CC3)c2)nc1C(=O)O[C@@H](C(=O)Nc1ccc(F)cc1)c1ccccc1 (stereo partly drawn) [TDH-547, (R)-2-((4-fluorophenyl)amino)-2-oxo-1-phenylethyl 3-amino-6-(1-(1-(2-(1-(2-(2,6-dioxopiperidin-3-yl)-1-oxoisoindoline-5-carbonyl)piperidin-4-yl)ethyl)piperidin-4-yl)-1H-pyrazol-4-yl)pyrazine-2-carboxylate] | 93.36 | 68.21 | 35.18 | 19.80 | 0.43 |  | 
7 | Nc1ncc(-c2cnn(C3CCN(C(=O)c4cn(C5CCN(c6ccc7c(c6)C(=O)N(C6CCC(=O)NC6=O)C7=O)CC5)cn4)CC3)c2)nc1C(=O)O[C@@H](C(=O)Nc1ccc(F)cc1)c1ccccc1 (stereo partly drawn) [TDH-365, (R)-2-((4-fluorophenyl)amino)-2-oxo-1-phenylethyl 3-amino-6-(1-(1-(1-(1-(2-(2,6-dioxopiperidin-3-yl)-1,3-dioxoisoindolin-5-yl)piperidin-4-yl)-1H-imidazole-4-carbonyl)piperidin-4-yl)-1H-pyrazol-4-yl)pyrazine-2-carboxylate] | 72.59 | 82.21 |  |  | 3.9 | 19.16 | 16.51
8 | Nc1ncc(-c2cnn(C3CCN(CCCN4CCN(CC5CCN(c6ccc7c(c6)C(=O)N(C6CCC(=O)NC6=O)C7=O)CC5)CC4)CC3)c2)nc1C(=O)O[C@@H](C(=O)Nc1ccc(F)cc1)c1ccccc1 (stereo partly drawn) [TDH-474, (R)-2-((4-fluorophenyl)amino)-2-oxo-1-phenylethyl 3-amino-6-(1-(1-(3-(4-((1-(2-(2,6-dioxopiperidin-3-yl)-1,3-dioxoisoindolin-5-yl)piperidin-4-yl)methyl)piperazin-1-yl)propyl)piperidin-4-yl)-1H-pyrazol-4-yl)pyrazine-2-carboxylate] | 54.33 | 68.31 | 25.61 | 5.98 | 0.95 |  | 
9 | Nc1ncc(-c2cnn(C3CCN(C(=O)CCC4CCN(C(=O)CNc5cccc6nnn(C7CCC(=O)NC7=O)c(=O)c56)CC4)CC3)c2)nc1C(=O)O[C@@H](C(=O)Nc1ccc(F)cc1)c1ccccc1 (stereo partly drawn) [TDH-433, (R)-2-((4-fluorophenyl)amino)-2-oxo-1-phenylethyl 3-amino-6-(1-(1-(3-(1-((3-(2,6-dioxopiperidin-3-yl)-4-oxo-3,4-dihydrobenzo[d][1,2,3]triazin-5-yl)glycyl)piperidin-4-yl)propanoyl)piperidin-4-yl)-1H-pyrazol-4-yl)pyrazine-2-carboxylate] | 74.16 | 46.20 | 16.00 | 11.01 | 2.1 |  | 
